Source: patent US7928098B2, “Therapeutic and/or preventive agents for a sleep disorder” (Kyowa Hakko Kirin Co., Ltd., priority 2005, dated 2011)

Row | Structure (SMILES) | melting point
1 | O=C(Nc1nc(-c2ccco2)c(C(=O)C2CCC2)s1)c1ccco1 [Compound 331, N-[5-(Cyclobutylcarbonyl)-4-(2-furyl)thiazol-2-yl]furan-2-carboxamide] | 188 to 192 °C
2 | CN1CCN(CC(=O)Nc2nc(-c3ccco3)c(C(=O)C3CCOCC3)s2)CC1 [Compound 467, N-[4-(2-Furyl)-5-(tetrahydropyran-4-ylcarbonyl)thiazol-2-yl]-2-(4-methylpiperazin-1-yl)acetamide] | 106 to 112 °C
3 | N#Cc1ccc(C(=O)Nc2nc(-c3ccco3)c(C(=O)C3CCC(=O)CC3)s2)cc1 [Compound 357, 4-Cyano-N-[4-(2-furyl)-5-(4-oxocyclohexylcarbonyl)-thiazole-2-yl]benzamide] | 211 to 212 °C
4 | COCC#CC(=O)c1sc(NC(=O)c2ccncc2)nc1-c1ccco1 [Compound 319, N-[4-(2-Furyl)-5-(3-methoxyprop-1-ynylcarbonyl)thiazol-2-yl]pyridine-4-carboxamide] | 198 to 200 °C
5 | O=C(Nc1nc(-c2ccco2)c(C(=O)C2CCOCC2)s1)c1cnn(-c2ccccc2)c1 [Compound 426, N-[4-(2-Furyl)-5-(tetrahydropyran-4-ylcarbonyl)thiazol-2-yl]-1-phenylpyrazole-4-carboxamide] | 217 to 220 °C
6 | Cn1cc(-c2sc(NC(=O)c3ccncc3)nc2-c2ccco2)ccc1=O [Compound 38, N-[4-(2-Furyl)-5-(1-methyl-2-oxo-1,2-dihydropyridin-5-yl)thiazol-2-yl]pyridine-4-carboxamide] | 294 to 295 °C
7 | Cc1cc(C(=O)Nc2nc(-c3ccco3)c(C(=O)C3CCOCC3)s2)ccn1 [Compound 405, N-[4-(2-Furyl)-5-(tetrahydropyran-4-ylcarbonyl)thiazol-2-yl]-2-methylpyridine-4-carboxamide] | 169 to 173 °C
8 | O=C(Nc1nc(-c2ccco2)c(C(=O)C2CCOCC2)s1)c1cccc(F)c1F [Compound 394, 2,3-Difluoro-N-[4-(2-furyl)-5-(tetrahydropyran-4-ylcarbonyl)thiazol-2-yl]benzamide] | 154 to 160 °C
9 | CC(C)C(=O)c1sc(NC(=O)C2CC2)nc1-c1ccco1 [Compound 301, N-[4-(2-Furyl)-5-isobutyrylthiazol-2-yl]cyclopropanecarboxamide] | 178 to 182 °C
10 | COc1cc(C(=O)c2sc(NC(=O)c3ccncc3)nc2-c2ccco2)ccn1 [Compound 243, N-[4-(2-Furyl)-5-(2-methoxypyridin-4-ylcarbonyl)thiazol-2-yl]pyridine-4-carboxamide] | 237 to 239 °C
11 | CCC(=O)c1sc(NC(=O)c2ccncc2)nc1-c1ccco1 [Compound 288, N-[4-(2-Furyl)-5-propionylthiazol-2-yl]pyridine-4-carboxamide] | 225 to 240 °C (dec.)
12 | O=C(Nc1nc(-c2ccco2)c(C(=O)C2CCOCC2)s1)c1ccnc(Cl)c1 [Compound 404, 2-Chloro-N-[4-(2-furyl)-5-(tetrahydropyran-4-ylcarbonyl)-thiazol-2-yl]pyridine-4-carboxamide] | 185 to 186 °C
13 | O=C(CN1CCN(C2CCOCC2)CC1)Nc1nc(-c2ccco2)c(C(=O)c2ccccn2)s1 [Compound 187, N-[4-(2-Furyl)-5-(pyridin-2-ylcarbonyl)thiazol-2-yl]-2-[4-(tetrahydropyran-4-yl)piperazin-1-yl]acetamide] | 172 to 188 °C
14 | O=C(Nc1nc(-c2ccco2)c(C(=O)C2CCOCC2)s1)c1ccccc1F [Compound 371, 2-Fluoro-N-[4-(2-furyl)-5-(tetrahydropyran-4-ylcarbonyl)-thiazol-2-yl]benzamide] | 172 to 176 °C
15 | CCOC(=O)Nc1nc(-c2ccco2)c(C(=O)C2CCOCC2)s1 [Compound 486, Ethyl N-[4-(2-furyl)-5-(tetrahydropyran-4-ylcarbonyl)thiazol-2-yl]carbamate] | 152 to 153 °C
16 | O=C(Nc1nc(-c2ccco2)c(C(=O)C2CCOCC2)s1)c1cc(F)ccc1F [Compound 396, 2,5-Difluoro-N-[4-(2-furyl)-5-(tetrahydropyran-4-ylcarbonyl)thiazol-2-yl]benzamide] | 172 to 174 °C
17 | O=C(Nc1nc(-c2ccco2)c(C(=O)C2CCOCC2)s1)c1ccc(F)c(F)c1 [Compound 398, 3,4-Difluoro-N-[4-(2-furyl)-5-(tetrahydropyran-4-ylcarbonyl)thiazol-2-yl]benzamide] | 208 to 210 °C
18 | CC(C)(O)CN1CCN(CC(=O)Nc2nc(-c3ccco3)c(C(=O)C3CCOCC3)s2)CC1 [Compound 470, N-[4-(2-Furyl)-5-(tetrahydropyran-4-ylcarbonyl)thiazol-2-yl]-2-[4-(2-hydroxy-2-methylpropyl)piperazin-1-yl]acetamide] | 106 to 108 °C
19 | COCC(=O)c1sc(NC(=O)c2ccc(Cl)nc2)nc1-c1ccco1 [Compound 310, 2-Chloro-N-[4-(2-furyl)-5-(methoxyacetyl)thiazol-2-yl]pyridine-5-carboxamide] | 174 to 183 °C
20 | O=C(Nc1nc(-c2ccco2)c(C(=O)C2CCOCC2)s1)c1ccc(CN2CCC(O)CC2)cc1 [Compound 386, N-[4-(2-Furyl)-5-(tetrahydropyran-4-ylcarbonyl)thiazol-2-yl]-4-(4-hydroxypiperidinomethyl)benzamide] | 194 to 195 °C
21 | CCn1cc(C(=O)Nc2nc(-c3ccco3)c(C(=O)C3CCOCC3)s2)cn1 [Compound 425, 1-Ethyl-N-[4-(2-furyl)-5-(tetrahydropyran-4-ylcarbonyl)-thiazol-2-yl]pyrazole-4-carboxamide] | 170 to 174 °C
22 | O=C(CN1CCC2(CC1)OCCO2)Nc1nc(-c2ccco2)c(C(=O)C2CCOCC2)s1 [Compound 459, 2-(1,4-Dioxa-8-azaspiro[4.5]decan-8-yl)-N-[4-(2-furyl)-5-(tetrahydropyran-4-ylcarbonyl)thiazol-2-yl]acetamide] | 186 to 187 °C
23 | O=C(C=Cc1ccccc1)Nc1nc(-c2ccco2)c(C(=O)C2CCOCC2)s1 [Compound 433, N-[4-(2-Furyl)-5-(tetrahydropyran-4-ylcarbonyl)thiazol-2-yl]-3-phenylacrylamide] | 253 to 256 °C
24 | O=C(Nc1nc(-c2ccco2)c(C(=O)C2CCOCC2)s1)c1ccccc1Cl [Compound 374, 2-Chloro-N-[4-(2-furyl)-5-(tetrahydropyran-4-ylcarbonyl)-thiazol-2-yl]benzamide] | 160 to 162 °C

Results, then the compound that gave them:

Row | melting point | Structure (SMILES)
25 | 217 to 231 °C | O=C(Nc1nc(-c2ccco2)c(C(=O)c2ccoc2)s1)c1ccncc1 [Compound 253, N-[4-(Furan-2-yl)-5-(furan-3-ylcarbonyl)thiazol-2-yl]pyridine-4-carboxamide]
26 | 197 to 199 °C | O=C(Nc1nc(-c2ccco2)c(C(=O)c2ccccn2)s1)c1cccs1 [Compound 149, N-[4-(2-Furyl)-5-(pyridin-2-ylcarbonyl)thiazol-2-yl]-thiophene-2-carboxamide]
27 | 223 to 230 °C | O=C(Nc1nc(-c2ccco2)c(C(=O)c2ccccn2)s1)c1ccno1 [Compound 150, N-[4-(2-Furyl)-5-(pyridin-2-ylcarbonyl)thiazol-2-yl]isoxazole-5-carboxamide]
28 | 250 to 255 °C | Cc1csc(C(=O)c2sc(NC(=O)c3ccncc3)nc2-c2ccco2)n1 [Compound 257, N-[4-(2-Furyl)-5-(4-methylthiazol-2-ylcarbonyl)thiazol-2-yl]pyridine-4-carboxamide]
29 | 162 to 163 °C | O=C(Nc1nc(-c2ccco2)c(C(=O)c2ccccn2)s1)OC1CCCC1 [Compound 160, Cyclopentyl N-[4-(2-furyl)-5-(pyridin-2-ylcarbonyl)thiazol-2-yl]carbamate]
30 | 182 to 185 °C | O=C(c1ccccn1)c1sc(NC(=O)N2CCCCC2)nc1-c1ccco1 [Compound 165, N-[4-(2-Furyl)-5-(pyridin-2-ylcarbonyl)thiazol-2-yl]piperidine-1-carboxamide]
31 | 136 to 141 °C | O=C(Nc1nc(-c2ccco2)c(C(=O)c2ccccn2)s1)c1ccnc(N2CCCCC2)c1 [Compound 126, N-[4-(2-Furyl)-5-(pyridin-2-ylcarbonyl)thiazol-2-yl]-2-piperidinopyridine-4-carboxamide]
32 | 127 to 134 °C | CCn1ccc(C(=O)c2sc(NC(=O)c3ccncc3)nc2-c2ccco2)c1 [Compound 262, N-[5-(1-Ethylpyrrol-3-ylcarbonyl)-4-(2-furyl)thiazol-2-yl]pyridine-4-carboxamide]
33 | 259 to 262 °C | O=C(Nc1nc(-c2ccco2)c(C(=O)c2ccccn2)s1)c1cncc(Br)c1 [Compound 134, 5-Bromo-N-[4-(2-furyl)-5-(pyridin-2-ylcarbonyl)thiazol-2-yl]pyridine-3-carboxamide]
34 | 252 to 259 °C (dec.) | CC(=O)c1sc(NC(=O)c2ccncc2)nc1-c1ccco1 [Compound 284, N-[5-Acetyl-4-(2-furyl)thiazol-2-yl]pyridine-4-carboxamide]
35 | 219 to 225 °C | O=C(Nc1nc(-c2ccco2)c(C(=O)c2ccccn2)s1)c1ccnc(Cl)c1 [Compound 122, 2-Chloro-N-[4-(2-furyl)-5-(pyridin-2-ylcarbonyl)thiazol-2-yl]pyridine-4-carboxamide]
36 | 205 to 208 °C | COc1ccccc1C(=O)Nc1nc(-c2ccco2)c(C(=O)c2ccccn2)s1 [Compound 108, N-[4-(2-Furyl)-5-(pyridin-2-ylcarbonyl)thiazol-2-yl]-2-methoxybenzamide]
37 | 294 to 295 °C | Cn1cc(C(=O)c2sc(NC(=O)c3ccncc3)nc2-c2ccco2)ccc1=O [Compound 267, N-[4-(2-Furyl)-5-(1-methyl-2-oxo-1,2-dihydropyridin-5-ylcarbonyl)thiazol-2-yl]pyridine-4-carboxamide]
38 | 220 to 225 °C | Cn1cc(C(=O)Nc2nc(-c3ccco3)c(C(=O)c3ccccc3)s2)ccc1=O [Compound 58, N-[5-Benzoyl-4-(2-furyl)thiazol-2-yl]-1-methyl-2-oxo-1,2-dihydropyridine-5-carboxamide]
39 | 230 to 232 °C (dec.) | Cc1ccc(C(=O)c2sc(NC(=O)c3ccncc3)nc2-c2ccco2)cn1 [Compound 220, N-[4-(2-Furyl)-5-(2-methylpyridin-5-ylcarbonyl)thiazol-2-yl]pyridine-4-carboxamide]
